According to patent EP0063075A1, “(2,6-Dimethoxy-4-hydroxyphenyl)-(3-piperidinopropyl) ketone and its salts, its use in therapeutic preparations and process for its production” (LABORATOIRE L. LAFON Société anonyme dite:, priority 1981, dated 1982):

Tests used:
[1] = result in words, compared with LL 1656; cited from earlier work
[2] = system: chien mâle anesthésié au nembutal; test: Peripheral vasodilator properties, intravenous administration in the anaesthetised dog; format: in vivo
Method: (§1) Les propriétés vasodilatatrices périphériques ont été étudiées chez le chien mâle anesthésié au nembutal (6 animaux par dose et par produit). Les produits à comparer sont administrés en solution dans du sérum physiologique sous un volume de 6 ml/animal par voie intraveineuse (perfusion de 1 ml/min) et sous un volume de 10 ml/animal par voie intraduodénale. Par rapport aux témoins (les mêmes animaux ne recevant que le sérum physiologique), on mesure trois paramètres : la pression artérielle moyenne (exprimée en mm Hg; mm Hg correspond à 1,333224 x 10^2 Pa), la fréquence cardiaque (exprimée en battements/minute) et le débit artériel fémoral (exprimé en ml/min). Les variations de ces paramètres exprimées en pourcentages, par rapport aux témoins, sont données dans les tableaux II (administration intraveineuse) et III (administration intraduodénale) ci-après.
(§2) La vasodilatation périphérique se traduit dans ces circonstances par une augmentation du débit artériel fémoral. On dit, selon les présentes conditions opératoires, qu'un produit est un agent vasodilatateur périphérique si le débit artériel fémoral augmente d'au moins 30% par administration intraveineuse, d'une part, et par administration intraduodénale, d'autre part, sans que la variation de la pression artérielle soit supérieure à +10% ou inférieure à -10%.

[3] = system: chien mâle anesthésié au nembutal; test: Peripheral vasodilator properties, intraduodenal administration in the anaesthetised dog; format: in vivo; details: for effet sur la pression artérielle par voie I.D. / effet vasodilatateur par voie I.D.: result in words
Method: as §1, §2

[4] = Solubility in water (description of the isolated product); format: physicochemical; details: result in words
[5] = as indicated in British patent n° 1.325.192; cited from earlier work
escarres = test: Clinical use in the treatment of bedsores; format: in vivo, homme; details: in man

O=C(CCCN1CCCC1)c1c(O)cc(O)cc1O [(2,4,6-trihydroxyphényl)-(3-pyrrolidinopropyl)-cétone]
propriétés vasodilatatrices périphériques [1]: aussi intéressants que le LL 1656

COc1cc(O)c(C(=O)CCCN2CCCC2)c(OC)c1 [(2,4-diméthoxy-6-hydroxyphényl)-(3-pyrrolidinopropyl)-cétone]
propriétés vasodilatatrices périphériques [1]: aussi intéressants que le LL 1656

COc1cc(O)cc(OC)c1C(=O)CCCN1CCCC1 [(2,6-diméthoxy-4-hydroxy-phényl)-(3-pyrrolidinopropyl)-cétone]
propriétés vasodilatatrices périphériques [1]: dépourvus d'effets vasodilatateurs périphériques

COc1cc(O)c(C(=O)CCCN2CCCCC2)c(OC)c1 [CP1, chlorhydratede (2,4-diméthoxy-6-hydroxyphényl)-(3-pipé-ridinopropyl)-cétone]
effet vasodilatateur par voie I.V. ([2]; result in words, i.v. route): très faiblement vasodilatateur
diminution de la pression artérielle par voie I.D. ([3]; intraduodenal route): > 10%
effet sur la pression artérielle par voie I.D. ([3]; intraduodenal route): effet hypotenseur
effet vasodilatateur par voie I.D. ([3]; intraduodenal route): n'a guère d'effet vasodilatateur
solubilité dans l'eau [4]: très soluble dans l'eau

O=C(CCCN1CCCCC1)c1c(O)cc(O)cc1O [CP2, chlorhydratede (2,4,6-trihydroxyphényl)-(3-pipéridinopropyl)-cétone]
dose à partir de laquelle le produit est vasodilatateur par voie I.V. [5]: ≥ 5 mg/kg
variation du débit artériel fémoral par voie I.D. ([3]; intraduodenal route): +17%
effet sur la pression artérielle par voie I.D. ([3]; intraduodenal route): effet hypotenseur
effet vasodilatateur par voie I.D. ([3]; intraduodenal route): pratiquement dépourvu d'effet vasodilatateur

COc1ccc(C(=O)CN2CCCCC2)c(OC)c1 [CP5, (2,4-dimé-thoxyphényl)-(pipéridinométhyl)-cétone]
change in vivo at 20 mg/kg ([3]; Canis lupus familiaris, intraduodenal, dose 20 mg/kg, versus controls, read-out: Variations en % Pression artérielle): 0%

COc1cc(OC)c(C(=O)CCCN2CCCC2)c(OC)c1 [CP7, chlorhydratede (2,4,6-triméthoxyphényl)-(3-pyrrolidinopropyl)-cétone]
change in vivo at 6 mg/kg ([2]; Canis lupus familiaris, intravenous, dose 6 mg/kg, versus controls, read-out: Variations en % Fréquence cardiaque): 0%
change in vivo at 1.5 mg/kg ([2]; Canis lupus familiaris, intravenous, dose 1,5 mg/kg, versus controls, read-out: Variations en % Pression artérielle): 0%

COc1cc(O)cc(OC)c1C(=O)CCCN1CCCCC1 [Exemple 1, chlorhydratede (2,6-diméthoxy-4-hydroxyphényl)-(3-pipéridinopropyl)-cétone]
activité en tant que vasodilatateur périphérique (comparaison) ([2]; text conclusion from tables II and III (i.v. and i.d.)): aussi actif que le produit de référence CP7
variation du débit artériel fémoral par voie I.V. ([2]; text summary over all i.v. doses (toujours)): > +30%
variation du débit artériel fémoral par voie I.D. ([3]; intraduodenal route): > +30%
solubilité dans l'eau [4]: soluble dans l'eau
résultats dans le traitement des escarres (escarres): bons résultats

(2,6-dihydroxy-4-méthoxyphényl)- ou (2,4-dihydroxy-6-méthoxyphényl)-(3-pyrrolidinopropyl)-cétone
propriétés vasodilatatrices périphériques [1]: dépourvus d'effets vasodilatateurs périphériques
